Reference: patent US20090053722A1, “SDAD ASSAY AND USES THEREOF” (priority 2007, published 2009)
“And” between values parts separate entries of the source, which are not always exact repeats. Equal values may be shown once. “Also recorded” adds a separate entry of the source. Read-outs that look alike come from different tables or passages of the source.

Assays:
human sperm [1] = system: human sperm
Method: (§1) Sperm were isolated from the seminal plasma as previously described in Brown et al., 1995. The sperm pellet was resuspended in phosphate buffered saline (PBS), pH=7.4, and divided into 4 aliquots. Each aliquot (equal sperm concentrations) was incubated at 37° C. in PBS with H2O2 concentrations of 0, 10, 50, and 100 μM for 15 min and 1 hr. All aliquots were divided into 2 portions. One portion was used to determine LPO. The remaining portion was centrifuged at 1500 g for 15 min. at room temperature, the sperm in the pellet resuspended and analyzed in the HSAA.

human sperm [2] = system: human sperm; remark: listed apart in the source
Method: as §1
The HSAA was performed as described by Brown et al. 1995. Briefly, sperm are washed and permeabilized using lysolecithine.
(§2) In a micro-centrifuge tube, the reaction mix was prepared; 8 μl of sperm suspension (200,000 sperm) was added to 100 μLof frog egg extract that contained 8 μl of ^3H-TTP (8 μCi). At 5 and 15 min, and 2 and 3 hr incubation times in the egg extract, 5 μl aliquots were taken, wet mounts prepared, and phase contrast microscopy used to determine the percentage of sperm that were fully decondensed and recondensed, respectively, scoring 50 nuclei per slide. At the 5 and 15 min, and 2 and 3 hr time points, 25 μl aliquots of the reaction mix was removed and mixed with 75 μl PBS. Two 50 μl cytopreps were made for each aliquote as described by Brown et al., 1992. The dried cytopreps were fixed in one part acetic acid, and three parts cold methanol, and Giemsa stained for 1 hr followed by a 10 min wash in Giemsa buffer. Slides were examined using light microscopy and analyzed using Metamorph software. Autoradiography was performed using cytoprep slides as described by Brown et al. 1995.
Sperm chromatin decondensation and nuclear recondensation were evaluated in sperm exposed to increasing concentrations of H2O2 for 15 min and 1 hr using the HSAA. Sperm were analyzed at different incubation times in the egg extract using the image analysis Methamorph software system. The sperm nuclear activation was scored in 5 categories (FIG. 2): 1) full decondensation: sperm diameter 25-30 μm (FIG. 2C), 2) partial decondensation: sperm diameter <25 μm (FIG. 2B), 3) non-decondensed (FIG. 2A), 4) hyperdecondensed: sperm diameter >(25-30 μm) [FIGS. 2b and c], and 5) full recondensation (FIGS. 2D and E).

human sperm [3] = system: human sperm; remark: listed apart in the source
Method: Thymidine incorporation into sperm was scored as follows: unlabeled (less than 5 black granules), medium label (from 5 to 25 black granules), and heavy label (more than 25 black granules). Each value is the mean±SD. […] (5a and 5b) ^3H-TTP incorporation after a 5 min incubation in the egg extract.
as §2
The DNA synthesis was determined by autoradiography as previously described in Materials and Methods.

sperm = details: comet assay; cited from earlier work
[4] = 10 μM H2O2, 15 min and 1 hr exposures, 5 min incubation in egg extract
[5] = 10 μM H2O2, 15 min and 1 hr exposures, 15 min incubation in egg extract
[6] = 50 μM H2O2, 15 min exposure, 2 and 3 hr incubation in egg extract (combined)
[7] = 50 μM H2O2, 15 min exposure, 5 min incubation in egg extract
[8] = 50 μM H2O2, 15 min exposure, 15 min incubation in egg extract
[9] = 50 μM H2O2, 1 hr exposure, 2 and 3 hr incubation in egg extract (combined)
[10] = 50 μM H2O2, 1 hr exposure, 5 min incubation in egg extract
[11] = 50 μM H2O2, 1 hr exposure, 15 min incubation in egg extract
[12] = 100 μM H2O2, 15 min and 1 hr exposures, 5 min incubation in egg extract
[13] = 100 μM H2O2, 15 min exposure, 2 and 3 hr incubation in egg extract (combined)
[14] = 100 μM H2O2, 15 min exposure, 5 min incubation in egg extract
[15] = 100 μM H2O2, 15 min exposure, 15 min incubation in egg extract
[16] = 100 μM H2O2, 1 hr exposure, 2 and 3 hr incubation in egg extract (combined)
[17] = 100 μM H2O2, 1 hr exposure, 5 min incubation in egg extract
[18] = 100 μM H2O2, 1 hr exposure, 15 min incubation in egg extract
[19] = 50 μM H2O2, 15 min exposure, 3 hr incubation in egg extract
[20] = 50 μM H2O2, 1 hr exposure, 2 hr incubation in egg extract
[21] = 50 μM H2O2, 1 hr exposure, 3 hr incubation in egg extract
[22] = 100 μM H2O2, 15 min exposure, 3 hr incubation in egg extract
[23] = 100 μM H2O2, 1 hr exposure, 2 hr incubation in egg extract
[24] = 100 μM H2O2, 1 hr exposure, 3 hr incubation in egg extract

With `OO` [H2O2, hydrogen peroxide] the “lipid peroxidation (MDA and hydroxyalkenals), means compared to the untreated control sperm” value (human sperm [1]; 10, 50 and 100 μM H2O2, 1 hr exposure) was “significantly different”, the “lipid peroxidation (MDA and hydroxyalkenals), means compared to the untreated control sperm” value (human sperm [1]; 50 and 100 μM H2O2, 15 min exposure) was “significantly different” and the recondensed sperm (human sperm [2]; 10 μM H2O2, 15 min and 1 hr exposure, 2 and 3 hr incubation in egg extract (combined)) was 98±2%. The partially decondensed sperm (human sperm [2]; [4]) was “Approximately 30%”, the recondensed sperm (human sperm [2]; [4]) was “No recondensed sperm were observed” and the “sperm showing no decondensation” value (human sperm [2]; [4]) was 35-40%. The fully decondensed sperm (human sperm [2]; [5]) was “Approximately 94%”, the fully decondensed sperm (human sperm [2]; 10 μM H2O2, 15 min exposure, 5 min incubation in egg extract) was “Approximately 28±4%” and the recondensed sperm (human sperm [2]; 10 μM H2O2, 15 min exposure, 15 min incubation in egg extract) was “No recondensed sperm were observed”. For the same compound, the fully decondensed sperm (human sperm [2]; 10 μM H2O2, 1 hr exposure, 5 min incubation in egg extract) was roughly 30±6%, the non-decondensed sperm (human sperm [2]; 10 μM H2O2, both time points (15 min and 1 hr exposure), 15 min incubation in egg extract) was “Approximately 5%” and the hyper-decondensed sperm (human sperm [2]; 10 μM H2O2, 2 and 3 hr incubation in egg extract (combined)) was “No sperm were hyper-decondensed”. The hyperdecondensed sperm (human sperm [2]; 10 μM H2O2, 5 min incubation in egg extract) was “No sperm were hyperdecondensed”, the hyperdecondensed sperm (human sperm [2]; 10 μM H2O2, 15 min incubation in egg extract) was “No sperm were hyperdecondensed” and the partially decondensed sperm (human sperm [2]; 50 μM H2O2, 15 min and 1 hr exposures, 5 min incubation in egg extract) was “Approximately 1%”. It also gave a hyper-decondensed sperm (human sperm [2]; [6]) of 35.2%, a recondensed sperm (human sperm [2]; [6]) of 66±2.3% and a fully decondensed sperm (human sperm [2]; [7]) of 43.3±3.7%. The hyperdecondensed sperm (human sperm [2]; [7]) was 38.4%, the non-decondensed sperm (human sperm [2]; [7]) was 15±3% and the recondensed sperm (human sperm [2]; [7]) was “No recondensed sperm were observed”. The fully decondensed sperm (human sperm [2]; [8]) was 53±3%, the hyperdecondensed sperm (human sperm [2]; [8]) was 45.2% and the recondensed sperm (human sperm [2]; [8]) was “No recondensed sperm were observed”. The hyper-decondensed sperm (human sperm [2]; [9]) was 30±2%, the recondensed sperm (human sperm [2]; [9]) was 70±3% and the fully decondensed sperm (human sperm [2]; [10]) was 46.6±6%. For the same compound, the hyperdecondensed sperm (human sperm [2]; [10]) was 31±−4% and 31±4%, the non-decondensed sperm (human sperm [2]; [10]) was 18±4% and the recondensed sperm (human sperm [2]; [10]) was 5±3%. It also gave a fully decondensed sperm (human sperm [2]; [11]) of 58±2%, a hyperdecondensed sperm (human sperm [2]; [11]) of 30±2% and a recondensed sperm (human sperm [2]; [11]) of 10±2%. For the same compound, the non-decondensed sperm (human sperm [2]; [12]) was 10±2%, the partially decondensed sperm (human sperm [2]; [12]) was “Approximately 1%” and the hyper-decondensed sperm (human sperm [2]; [13]) was 45±2%. The recondensed sperm (human sperm [2]; [13]) was 57±2%, the fully decondensed sperm (human sperm [2]; [14]) was 56.6±4.7% and the hyperdecondensed sperm (human sperm [2]; [14]) was 26%. It also gave a recondensed sperm (human sperm [2]; [14]) of 8±2%, a fully decondensed sperm (human sperm [2]; [15]) of 48±1.5% and a hyperdecondensed sperm (human sperm [2]; [15]) of 37%. The recondensed sperm (human sperm [2]; [15]) was 15±3%, the hyper-decondensed sperm (human sperm [2]; [16]) was 45±3% and the recondensed sperm (human sperm [2]; [16]) was 54±2%. For the same compound, the fully decondensed sperm (human sperm [2]; [17]) was 64.5±4.5%, the hyperdecondensed sperm (human sperm [2]; [17]) was 11±4% and the recondensed sperm (human sperm [2]; [17]) was 15±2%. The fully decondensed sperm (human sperm [2]; [18]) was 47±2%, the hyperdecondensed sperm (human sperm [2]; [18]) was 33±3.5% and the recondensed sperm (human sperm [2]; [18]) was 20±2%. The “sperm nuclei with abnormal recondensation and nuclear arrest in the hyperdecondensed state” value (human sperm [2]; 50 and 100 μM H2O2, 3 hr incubation in egg extract) was 33-42%, the non-decondensed sperm (human sperm [2]; any other H2O2 concentrations (50, 100 μM) at any of the time points, 15 min incubation in egg extract) was “no sperm were non-decondensed” and the 3H-TTP incorporation (human sperm [3]; 10 μM H2O2, 15 min and 1 hr exposure, 2 and 3 hr incubations in frog egg extract) was “normal ^3H-TTP incorporation”. The “sperm positive for 3H-TTP incorporation” value (human sperm [3]; [4]) was “No sperm were positive for ^3H-TTP incorporation; also recorded: no incorporation of ^3H-TTP”, the “sperm positive for 3H-TTP incorporation” value (human sperm [3]; [5]) was “No sperm were positive for ^3H-TTP incorporation; also recorded: no incorporation of ^3H-TTP” and the “sperm heavily labeled by 3H-TTP” value (human sperm [3]; 10 μM H2O2, 15 min and 1 hr exposures, 2 hr incubation in egg extract) was 99±1%. For the same compound, the “sperm heavily labeled by 3H-TTP” value (human sperm [3]; 10 μM H2O2, 15 min and 1 hr exposures, 3 hr incubation in egg extract) was 98±2%, the “sperm with medium 3H-TTP labeling” value (human sperm [3]; 50 μM H2O2, 15 min exposure (first of '50 and 100 μM for 15 min and 1 hr, respectively'), 2 hr incubation in egg extract) was “approximately 14.5±4%” and the “sperm heavily labeled by 3H-TTP” value (human sperm [3]; [7]) was 10±3.5%. For the same compound, the “sperm with medium 3H-TTP labeling” value (human sperm [3]; [7]) was 18±3.5%, the “sperm heavily labeled by 3H-TTP” value (human sperm [3]; [8]) was 10±2% and the “sperm with medium 3H-TTP labeling” value (human sperm [3]; [8]) was “approximately 20±3%”. For the same compound, the “sperm heavily labeled by 3H-TTP” value (human sperm [3]; 50 μM H2O2, 15 min exposure, 2 hr incubation in egg extract) was 85±5%, the “sperm heavily labeled by 3H-TTP” value (human sperm [3]; [19]) was “approximately 78±6%” and the “sperm with medium 3H-TTP labeling” value (human sperm [3]; [19]) was “approximately 16.5±2%”. The “sperm heavily labeled by 3H-TTP” value (human sperm [3]; [10]) was 28±2%, the “sperm with medium 3H-TTP labeling” value (human sperm [3]; [10]) was 36±3% and the “sperm heavily labeled by 3H-TTP” value (human sperm [3]; [11]) was 17.5±7.5%. For the same compound, the “sperm with medium 3H-TTP labeling” value (human sperm [3]; [11]) was “Approximately 21±5%”, the “sperm heavily labeled by 3H-TTP” value (human sperm [3]; [20]) was 56.5±3% and the “sperm with medium 3H-TTP labeling” value (human sperm [3]; [20]) was “Approximately 36±2%”. The “sperm heavily labeled by 3H-TTP” value (human sperm [3]; [21]) was “Approximately 75±3%”, the “sperm with medium 3H-TTP labeling” value (human sperm [3]; [21]) was “Approximately 25±3%” and the “sperm with medium 3H-TTP labeling” value (human sperm [3]; 100 μM H2O2 (second of '50 and 100 μM for 15 min and 1 hr, respectively'), 2 hr incubation in egg extract) was roughly 43.5±5%. The “sperm heavily labeled by 3H-TTP” value (human sperm [3]; [14]) was 15±5%, the “sperm with medium 3H-TTP labeling” value (human sperm [3]; [14]) was “Approximately 25±5%” and the “sperm heavily labeled by 3H-TTP” value (human sperm [3]; [15]) was 50±5%. For the same compound, the “sperm with medium 3H-TTP labeling” value (human sperm [3]; [15]) was roughly 30±10%, the “sperm heavily labeled by 3H-TTP” value (human sperm [3]; 100 μM H2O2, 15 min exposure, 2 hr incubation in egg extract) was “Approximately 64±2%” and the “sperm heavily labeled by 3H-TTP” value (human sperm [3]; [22]) was roughly 85±5%. The “sperm with medium 3H-TTP labeling” value (human sperm [3]; [22]) was roughly 14.5±3%, the “sperm heavily labeled by 3H-TTP” value (human sperm [3]; [17]) was 31±3% and the “sperm with medium 3H-TTP labeling” value (human sperm [3]; [17]) was roughly 48±2%. The “sperm heavily labeled by 3H-TTP” value (human sperm [3]; [18]) was 45±9%, the “sperm with medium 3H-TTP labeling” value (human sperm [3]; [18]) was roughly 37±9% and the “sperm heavily labeled by 3H-TTP” value (human sperm [3]; [23]) was roughly 71±3%. For the same compound, the “sperm with medium 3H-TTP labeling” value (human sperm [3]; [23]) was roughly 28.5±2.5%, the “sperm heavily labeled by 3H-TTP” value (human sperm [3]; [24]) was roughly 60±4% and the “sperm with medium 3H-TTP labeling” value (human sperm [3]; [24]) was roughly 40±4%. For the same compound, the “H2O2 concentration at which induction of DNA fragmentation was significant” value (sperm) was 200 µM.
